Like-named read-outs stand apart in the source and are kept apart here.
Legend:
Type in all cases: biochemical
[1] = molecular target: kinases (Homo sapiens, UniProt Q96NX5); conditions: CAMK1G FRET-Z-Lyte SP
[2] = molecular target: kinases (Homo sapiens, UniProt Q96RG2); conditions: PASK FRET-Z-Lyte SP; Test Conc(μM):ATP Conc(μM) 1:50
[3] = molecular target: kinases (Homo sapiens, UniProt P05771); conditions: PRKCB1 (PKC beta I) Z-Lyte SP; Test Conc(μM):ATP Conc(μM) 1:200
[4] = molecular target: kinases (Homo sapiens, UniProt P49840); conditions: GSK3A FRET-Z-Lyte SP; Test Conc(μM):ATP Conc(μM) 1:10
[5] = molecular target: kinases (Homo sapiens, UniProt P12931); conditions: SRC Hu Phos FRET-Z-Lyte SP; Test Conc(μM):ATP Conc(μM) 1:50
[6] = molecular target: kinases (Homo sapiens, UniProt Q2M2I8); conditions: AAK1 FRET-Lantha SP; Test Conc(μM) 1
[7] = molecular target: kinases (Homo sapiens, UniProt P28482); conditions: MAPK1 (ERK2) FRET-Z-Lyte SP; Test Conc(μM):ATP Conc(μM) 1:100
kinases (Homo sapiens, UniProt P28482), sequence (P28482 whole entry): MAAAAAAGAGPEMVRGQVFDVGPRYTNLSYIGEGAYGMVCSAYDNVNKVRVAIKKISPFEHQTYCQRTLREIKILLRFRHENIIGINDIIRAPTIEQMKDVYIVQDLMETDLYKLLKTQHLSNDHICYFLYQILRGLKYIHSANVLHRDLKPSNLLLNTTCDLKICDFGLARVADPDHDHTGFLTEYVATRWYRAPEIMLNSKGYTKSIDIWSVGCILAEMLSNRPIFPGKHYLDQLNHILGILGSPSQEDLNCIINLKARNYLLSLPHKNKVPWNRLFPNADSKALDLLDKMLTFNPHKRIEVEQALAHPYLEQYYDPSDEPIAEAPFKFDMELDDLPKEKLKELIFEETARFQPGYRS

[8] = molecular target: kinases (Homo sapiens, UniProt P51955); conditions: NEK2 FRET-Z-Lyte SP; Test Conc(μM):ATP Conc(μM) 1:150
[9] = molecular target: kinases (Homo sapiens, UniProt P37023); conditions: ACVRL1 (ALK1) FRET-Lantha SP; Test Conc(μM) 1
[10] = molecular target: kinases (Homo sapiens, UniProt Q8IWQ3); conditions: BRSK2 FRET-Lantha SP; Test Conc(μM) 1
[11] = molecular target: kinases (Homo sapiens, UniProt Q00536); conditions: CDK16(PCTK1)/cyclinY Lantha SP; Test Conc(μM) 1
kinases (Homo sapiens, UniProt Q00536), sequence (Q00536 whole entry): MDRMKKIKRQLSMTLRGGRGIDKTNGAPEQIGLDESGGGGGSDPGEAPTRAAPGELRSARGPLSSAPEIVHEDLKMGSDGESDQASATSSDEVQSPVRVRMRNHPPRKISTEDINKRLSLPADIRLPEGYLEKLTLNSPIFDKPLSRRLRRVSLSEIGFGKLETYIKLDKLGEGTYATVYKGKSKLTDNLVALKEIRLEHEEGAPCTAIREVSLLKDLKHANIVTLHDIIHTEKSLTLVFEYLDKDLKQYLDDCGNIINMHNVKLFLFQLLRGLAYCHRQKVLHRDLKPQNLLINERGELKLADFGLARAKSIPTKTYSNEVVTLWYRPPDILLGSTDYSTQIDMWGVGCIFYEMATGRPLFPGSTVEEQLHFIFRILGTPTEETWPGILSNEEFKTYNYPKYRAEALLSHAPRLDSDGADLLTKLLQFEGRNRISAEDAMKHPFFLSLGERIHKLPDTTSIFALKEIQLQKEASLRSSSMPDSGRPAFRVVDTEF

[12] = molecular target: kinases (Homo sapiens, UniProt P78362); conditions: SRPK2 FRET-Z-Lyte SP; Test Conc(μM):ATP Conc(μM) 1:25
[13] = molecular target: kinases (Homo sapiens, UniProt Q8IVH8); conditions: MAP4K3 (GLK) FRET-Lantha SP; Test Conc(μM) 1
[14] = molecular target: kinases (Homo sapiens, UniProt Q9UEW8); conditions: STK39 (STLK3) FRET-Lantha SP; Test Conc(μM) 1
[15] = molecular target: kinases (Homo sapiens, UniProt Q13554); conditions: CAMK2B FRET-Z-Lyte SP; Test Conc(μM):ATP Conc(μM) 1:75
[16] = molecular target: kinases (Homo sapiens, UniProt Q99683); conditions: MAP3K5 (ASK1) FRET-Lantha SP; Test Conc(μM) 1
[17] = molecular target: kinases (Homo sapiens, UniProt Q32MK0); conditions: MYLK3 Hu Bind FRET-Lantha SP; Test Conc(μM) 1
[18] = molecular target: kinases (Homo sapiens, UniProt O14920); conditions: IKBKB (IKKbeta) FRET-Z-Lyte SP; Test Conc(μM):ATP Conc(μM) 1:5
[19] = molecular target: kinases (Homo sapiens, UniProt Q52WX2); conditions: SBK1 FRET-Z-Lyte SP; Test Conc(μM):ATP Conc(μM) 1:5
[20] = molecular target: kinases (Homo sapiens, UniProt P49137); conditions: MAPKAPK2 FRET-Z-Lyte SP; Test Conc(μM):ATP Conc(μM) 1:5
[21] = molecular target: kinases (Homo sapiens, UniProt Q56UN5); conditions: MAP3K19 (YSK4) FRET-Z-Lyte SP; Test Conc(μM):ATP Conc(μM) 1:5
[22] = molecular target: kinases (Homo sapiens, UniProt P27037); conditions: ACVR2A FRET-Lantha SP; Test Conc(μM) 1
kinases (Homo sapiens, UniProt P27037), sequence (P27037 20-513): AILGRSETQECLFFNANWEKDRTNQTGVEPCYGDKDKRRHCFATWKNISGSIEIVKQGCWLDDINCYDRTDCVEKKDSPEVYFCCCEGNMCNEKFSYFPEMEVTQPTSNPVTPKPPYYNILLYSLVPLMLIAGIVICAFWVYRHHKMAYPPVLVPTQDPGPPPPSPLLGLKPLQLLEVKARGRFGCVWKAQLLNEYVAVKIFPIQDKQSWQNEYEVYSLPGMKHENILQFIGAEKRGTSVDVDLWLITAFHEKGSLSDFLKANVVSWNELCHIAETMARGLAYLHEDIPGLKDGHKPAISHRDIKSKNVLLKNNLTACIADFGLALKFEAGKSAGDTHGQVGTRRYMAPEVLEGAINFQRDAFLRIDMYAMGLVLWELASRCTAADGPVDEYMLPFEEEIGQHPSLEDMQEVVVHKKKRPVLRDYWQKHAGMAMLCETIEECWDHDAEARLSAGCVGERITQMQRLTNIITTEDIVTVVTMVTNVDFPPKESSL

[23] = molecular target: kinases (Homo sapiens, UniProt O94806); conditions: PRKCN (PKD3) FRET-Z-Lyte SP; Test Conc(μM):ATP Conc(μM) 1:25
kinases (Homo sapiens, UniProt O94806), sequence (O94806 whole entry): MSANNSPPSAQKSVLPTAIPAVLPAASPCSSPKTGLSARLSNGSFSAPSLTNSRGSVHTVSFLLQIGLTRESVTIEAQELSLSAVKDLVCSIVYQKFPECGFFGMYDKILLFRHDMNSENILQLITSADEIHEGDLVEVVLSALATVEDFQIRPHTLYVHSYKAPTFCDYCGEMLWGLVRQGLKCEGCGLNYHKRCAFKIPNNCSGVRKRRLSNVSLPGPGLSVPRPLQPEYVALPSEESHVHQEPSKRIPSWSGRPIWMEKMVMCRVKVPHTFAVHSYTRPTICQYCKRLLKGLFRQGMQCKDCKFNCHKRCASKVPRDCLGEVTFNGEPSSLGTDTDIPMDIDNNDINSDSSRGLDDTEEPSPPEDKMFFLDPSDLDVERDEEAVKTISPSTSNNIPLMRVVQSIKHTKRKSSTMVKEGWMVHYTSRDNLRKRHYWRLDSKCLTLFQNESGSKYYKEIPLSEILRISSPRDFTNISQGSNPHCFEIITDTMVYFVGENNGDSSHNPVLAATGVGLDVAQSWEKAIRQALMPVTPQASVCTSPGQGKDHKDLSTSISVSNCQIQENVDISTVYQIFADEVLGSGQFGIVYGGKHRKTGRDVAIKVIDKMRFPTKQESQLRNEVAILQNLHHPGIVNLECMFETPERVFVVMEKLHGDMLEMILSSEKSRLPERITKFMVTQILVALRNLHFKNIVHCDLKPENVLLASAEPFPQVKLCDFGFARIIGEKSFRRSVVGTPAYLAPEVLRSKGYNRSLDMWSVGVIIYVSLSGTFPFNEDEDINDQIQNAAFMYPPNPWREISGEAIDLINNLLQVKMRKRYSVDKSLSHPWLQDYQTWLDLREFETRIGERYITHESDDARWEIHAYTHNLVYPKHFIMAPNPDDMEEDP

[24] = molecular target: kinases (Homo sapiens, UniProt Q8TD19); conditions: NEK9 *Mn* FRET-Z-Lyte SP; Test Conc(μM):ATP Conc(μM) 1:100
kinases (Homo sapiens, UniProt Q8TD19), sequence (Q8TD19 whole entry): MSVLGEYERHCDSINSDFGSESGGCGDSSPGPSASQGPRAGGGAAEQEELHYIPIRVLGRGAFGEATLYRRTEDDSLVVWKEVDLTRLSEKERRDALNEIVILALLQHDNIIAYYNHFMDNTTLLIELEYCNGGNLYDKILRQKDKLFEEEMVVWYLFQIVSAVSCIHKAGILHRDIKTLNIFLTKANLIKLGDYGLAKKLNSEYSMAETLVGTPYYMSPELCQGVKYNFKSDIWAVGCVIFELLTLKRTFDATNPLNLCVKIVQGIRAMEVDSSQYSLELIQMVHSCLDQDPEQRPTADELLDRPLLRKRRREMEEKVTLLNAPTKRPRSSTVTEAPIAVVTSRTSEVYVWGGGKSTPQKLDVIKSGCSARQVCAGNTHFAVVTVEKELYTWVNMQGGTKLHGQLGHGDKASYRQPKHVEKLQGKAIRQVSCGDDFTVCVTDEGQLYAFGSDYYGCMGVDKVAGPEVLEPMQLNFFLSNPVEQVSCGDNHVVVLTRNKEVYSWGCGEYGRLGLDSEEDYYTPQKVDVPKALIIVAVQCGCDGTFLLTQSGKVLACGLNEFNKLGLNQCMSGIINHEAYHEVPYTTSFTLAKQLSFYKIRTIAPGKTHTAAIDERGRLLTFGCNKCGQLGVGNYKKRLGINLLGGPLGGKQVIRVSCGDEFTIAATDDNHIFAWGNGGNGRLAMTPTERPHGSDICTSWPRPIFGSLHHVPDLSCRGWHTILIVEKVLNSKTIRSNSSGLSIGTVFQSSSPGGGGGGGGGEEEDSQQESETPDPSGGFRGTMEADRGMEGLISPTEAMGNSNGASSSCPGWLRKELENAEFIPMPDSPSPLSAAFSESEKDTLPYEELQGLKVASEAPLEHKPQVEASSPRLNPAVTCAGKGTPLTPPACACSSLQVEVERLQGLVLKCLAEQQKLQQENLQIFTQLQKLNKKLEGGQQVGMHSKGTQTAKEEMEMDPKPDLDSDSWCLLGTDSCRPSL

[25] = molecular target: kinases (Homo sapiens, UniProt P22612); conditions: PRKACG FRET-Lantha SP; Test Conc(μM) 1
[26] = molecular target: kinases (Homo sapiens, UniProt Q9UPZ9); conditions: ICK FRET-Lantha SP; Test Conc(μM) 1
[27] = molecular target: kinases (Homo sapiens, UniProt P24723); conditions: PRKCH (PKC eta) Z-Lyte SP; Test Conc(μM):ATP Conc(μM) 1:25
kinases (Homo sapiens, UniProt P24723), sequence (P24723 whole entry): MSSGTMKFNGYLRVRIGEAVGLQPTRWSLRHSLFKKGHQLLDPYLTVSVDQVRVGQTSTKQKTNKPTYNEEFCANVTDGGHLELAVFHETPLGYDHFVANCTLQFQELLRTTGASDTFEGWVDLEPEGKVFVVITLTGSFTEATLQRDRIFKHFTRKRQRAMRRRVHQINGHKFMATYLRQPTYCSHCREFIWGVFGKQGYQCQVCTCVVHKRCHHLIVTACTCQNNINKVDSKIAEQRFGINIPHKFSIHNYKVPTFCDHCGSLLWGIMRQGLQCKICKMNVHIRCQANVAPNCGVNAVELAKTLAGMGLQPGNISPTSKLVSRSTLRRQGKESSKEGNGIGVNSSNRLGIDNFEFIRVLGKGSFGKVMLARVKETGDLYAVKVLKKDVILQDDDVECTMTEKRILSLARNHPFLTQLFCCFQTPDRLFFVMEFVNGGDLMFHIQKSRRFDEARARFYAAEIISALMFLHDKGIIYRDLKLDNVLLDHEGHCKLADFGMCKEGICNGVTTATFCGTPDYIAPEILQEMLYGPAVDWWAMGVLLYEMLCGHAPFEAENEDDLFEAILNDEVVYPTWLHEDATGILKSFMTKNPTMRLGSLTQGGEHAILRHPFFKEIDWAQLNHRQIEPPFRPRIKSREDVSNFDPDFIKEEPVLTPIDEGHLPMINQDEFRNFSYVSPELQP

[28] = molecular target: kinases (Homo sapiens, UniProt Q14004); conditions: Test Conc(μM) 1
[29] = molecular target: kinases (Homo sapiens, UniProt P48730); conditions: CSNK1D (CK1 delta) Z-Lyte SP; Test Conc(μM):ATP Conc(μM) 1:5

kinases (Homo sapiens, UniProt P05771), sequence (P05771 whole entry): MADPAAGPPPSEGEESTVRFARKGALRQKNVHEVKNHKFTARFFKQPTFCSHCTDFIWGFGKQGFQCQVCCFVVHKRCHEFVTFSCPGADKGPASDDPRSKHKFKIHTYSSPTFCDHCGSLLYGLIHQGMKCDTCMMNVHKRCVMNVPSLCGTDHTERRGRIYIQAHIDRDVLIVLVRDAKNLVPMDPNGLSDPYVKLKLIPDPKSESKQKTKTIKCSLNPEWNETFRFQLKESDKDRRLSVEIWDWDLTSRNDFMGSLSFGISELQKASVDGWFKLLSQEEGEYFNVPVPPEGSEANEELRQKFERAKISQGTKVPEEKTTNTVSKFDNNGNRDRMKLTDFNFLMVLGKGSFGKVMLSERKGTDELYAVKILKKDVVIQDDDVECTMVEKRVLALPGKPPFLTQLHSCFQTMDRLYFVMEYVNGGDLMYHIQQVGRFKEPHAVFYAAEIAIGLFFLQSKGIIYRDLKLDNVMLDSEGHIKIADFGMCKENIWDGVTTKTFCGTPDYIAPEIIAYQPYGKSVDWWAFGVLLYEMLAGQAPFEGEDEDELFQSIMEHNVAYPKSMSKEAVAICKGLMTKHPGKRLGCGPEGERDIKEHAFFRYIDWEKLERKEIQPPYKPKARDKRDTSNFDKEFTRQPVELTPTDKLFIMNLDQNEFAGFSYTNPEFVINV
kinases (Homo sapiens, UniProt Q96NX5), sequence (Q96NX5 whole entry): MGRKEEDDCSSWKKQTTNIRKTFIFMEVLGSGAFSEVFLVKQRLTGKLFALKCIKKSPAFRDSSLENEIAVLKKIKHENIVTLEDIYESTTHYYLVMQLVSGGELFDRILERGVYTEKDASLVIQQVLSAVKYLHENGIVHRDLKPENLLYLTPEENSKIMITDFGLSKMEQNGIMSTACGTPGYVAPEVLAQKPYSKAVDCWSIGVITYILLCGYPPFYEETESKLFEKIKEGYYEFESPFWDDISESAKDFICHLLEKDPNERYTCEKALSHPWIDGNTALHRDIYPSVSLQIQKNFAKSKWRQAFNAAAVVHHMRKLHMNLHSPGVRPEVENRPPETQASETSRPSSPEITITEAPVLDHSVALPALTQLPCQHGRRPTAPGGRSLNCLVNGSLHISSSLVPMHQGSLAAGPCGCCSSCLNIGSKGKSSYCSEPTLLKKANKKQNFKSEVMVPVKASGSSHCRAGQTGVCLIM

| SMILES | Mean Inhib (%) [2] | Mean Inhib (%) [3] | Mean Inhib (%) [4] | Mean Inhib (%) [5] | Mean Inhib (%) [6] | Mean Inhib (%) [7] | Mean Inhib (%) [8] | Mean Inhib (%) [9] | Mean Inhib (%) [10] | Mean Inhib (%) [11] | Mean Inhib (%) [12] | Mean Inhib (%) [13] | Mean Inhib (%) [14] | Mean Inhib (%) [15] | Mean Inhib (%) [16] | Mean Inhib (%) [17] | Mean Inhib (%) [18] | Mean Inhib (%) [19] | Mean Inhib (%) [20] | Mean Inhib (%) [21] | other results |
| --- | --- | --- | --- | --- | --- | --- | --- | --- | --- | --- | --- | --- | --- | --- | --- | --- | --- | --- | --- | --- | --- |
| Cc1cc(Oc2ccnc(Nc3ccc(S(N)(=O)=O)cc3)c2)c(-c2ccccn2)nc1C [compound 65] | 3.8% | −7.3% | 3.2% | 54.4% | 2.4% | 7.5% | 12.8% | 77.2% | 10.2% | 0.2% | 1.9% | 14.0% | 5.1% | 11.4% | 6.1% | 0.8% | −2.5% | −6.2% | 9.2% | −3.1% | Mean Inhib (%) ([1]; Test Conc(μM):ATP Conc(μM) 0.25): −3.7%; Mean Inhib (%) [22]: 71.5%; Mean Inhib (%) [23]: 12.4%; Mean Inhib (%) [24]: −4.1%; Mean Inhib (%) [25]: 2.2%; Mean Inhib (%) [26]: 6.0%; Mean Inhib (%) [27]: 0.8%; CDK13 Cyclin K FRET-Lantha SP Mean Mean Inhib (%) ([28]; CDK13 Cyclin K): 4.1%; Mean Inhib (%) [29]: 1.9% |
| Cc1ccc(NC(=O)c2ccnc(N3CCOCC3)c2)cc1Nc1ccnc(N2CC(C)OC(C)C2)n1 (stereo not shown) [compound 3] | 13.7% | 27.7% | 9.4% | 14.3% | 5.8% | 3.6% | −0.8% | 7.2% | 3.2% | 3.4% | −1.9% | 7.7% | 6.0% | 4.5% | 0.2% | 4.5% | 0.6% | 3.3% | −2.1% | −1.6% | Mean Inhib (%) ([1]; Test Conc(μM):ATP Conc(μM) 1:300): 5.8%; Mean Inhib (%) [22]: 3.8%; Mean Inhib (%) [23]: 9.0%; Mean Inhib (%) [24]: 1.8%; Mean Inhib (%) [25]: 0.7%; Mean Inhib (%) [26]: 0.3%; Mean Inhib (%) [27]: 9.3%; Mean Inhib (%) ([28]; CDK13 Cyclin K FRET-Lantha SP): 5.4%; Mean Inhib (%) [29]: 1.2% |
